Results reported in patent US20230265116A1, “DEGRADATION OF (EGFR) BY CONJUGATION OF EGFR INHIBITORS WITH E3 LIGASE LIGAND AND METHODS OF USE” (BEIGENE, LTD., priority 2020, published 2023).
Where two headings read alike, the source gives them in different places.

Legend:
[1] = target: T1, EGFR L858R/T790M/C797S (BaF3-LTC cells) (Homo sapiens, UniProt P00533, C797S/L858R/T790M); assay: EGFR degradation HTRF assay, BaF3-LTC cells; assay type: cell-based
T1 construct: expressed in transfected cells; host or cells: BaF3
How it was run: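 Cells treated 16 h at 37 °C, 5% CO2 in medium with 0.2% DMSO; top final concentration 10 uM, 5-fold dilution, 8 doses. Lysates read by HTRF (665/620 nm); degradation % versus DMSO high control, DC50 from four-parameter fit, Dmax as maximal degradation.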

[2] = system: EGFR Del19/T790M/C797S (H1975-clone #28); assay: EGFR degradation HTRF assay, H1975-clone #28 DTC cells; assay type: cell-based
How it was run: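 Compounds (top 10 uM, 5-fold, 8 points, 0.2% DMSO) incubated 16 h at 37 °C on homozygous clones: #23 Del19/C797S, #28 Del19/T790M/C797S, exogenous EGFR only in H1975. HTRF on lysates quantified remaining EGFR relative to DMSO; four-parameter fit gave DC50 and Dmax.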

[3] = BaF3-LTC cells; EGFR degradation, IC50 (DC50) from curve fit; read-out: DC50(nM) BaF3-LTC
[4] = BaF3-LTC cells; maximum percentage of inhibition (degradation); read-out: Dmax (%) BaF3-LTC
[5] = H1975 # 28 DTC cells; EGFR degradation, IC50 (DC50) from curve fit; read-out: DC50(nM) H1975 # 28 DTC
[6] = H1975 # 28 DTC cells; maximum percentage of inhibition (degradation)

T1 sequence (P00533 25-1210 T790M/C797S/L858R): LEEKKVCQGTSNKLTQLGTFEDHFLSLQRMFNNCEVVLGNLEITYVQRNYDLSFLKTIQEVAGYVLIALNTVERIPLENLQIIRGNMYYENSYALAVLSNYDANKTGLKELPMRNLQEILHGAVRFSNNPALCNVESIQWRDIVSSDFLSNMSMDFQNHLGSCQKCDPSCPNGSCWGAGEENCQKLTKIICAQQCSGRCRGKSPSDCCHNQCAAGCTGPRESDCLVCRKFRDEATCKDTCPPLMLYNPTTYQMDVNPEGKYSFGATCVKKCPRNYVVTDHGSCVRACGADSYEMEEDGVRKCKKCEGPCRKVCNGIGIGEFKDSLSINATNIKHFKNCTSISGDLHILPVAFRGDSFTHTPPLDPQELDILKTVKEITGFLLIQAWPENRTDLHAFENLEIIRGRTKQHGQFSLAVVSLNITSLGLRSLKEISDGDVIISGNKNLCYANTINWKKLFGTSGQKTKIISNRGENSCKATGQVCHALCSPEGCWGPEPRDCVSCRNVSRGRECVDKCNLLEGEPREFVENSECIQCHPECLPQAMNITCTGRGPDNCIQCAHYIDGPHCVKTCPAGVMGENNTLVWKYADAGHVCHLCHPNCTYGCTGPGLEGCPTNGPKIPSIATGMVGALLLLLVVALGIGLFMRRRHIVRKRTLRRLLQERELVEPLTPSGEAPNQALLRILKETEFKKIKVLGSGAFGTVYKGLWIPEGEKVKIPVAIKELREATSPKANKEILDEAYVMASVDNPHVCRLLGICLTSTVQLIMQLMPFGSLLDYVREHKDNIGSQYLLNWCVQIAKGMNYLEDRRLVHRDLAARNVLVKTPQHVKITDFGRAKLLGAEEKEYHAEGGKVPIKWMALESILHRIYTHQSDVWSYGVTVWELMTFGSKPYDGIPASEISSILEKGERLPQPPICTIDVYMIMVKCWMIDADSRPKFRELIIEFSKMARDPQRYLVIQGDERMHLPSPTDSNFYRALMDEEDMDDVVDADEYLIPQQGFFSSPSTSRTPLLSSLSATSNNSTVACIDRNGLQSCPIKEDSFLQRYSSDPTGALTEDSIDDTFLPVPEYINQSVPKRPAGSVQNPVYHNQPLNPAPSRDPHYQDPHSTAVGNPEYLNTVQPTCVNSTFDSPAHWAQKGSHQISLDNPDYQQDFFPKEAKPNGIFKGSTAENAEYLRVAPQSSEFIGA

| SMILES | DC50 [1, 3] [nM] | Dmax [1, 4] [%] | DC50 [2, 5] [nM] | Dmax (%) H1975 # 28 DTC [2, 6] [%] | DC50 ([1]; read-out: DC50(nM) BaF3-LTC; BaF3-LTC cells; EGFR degradation, IC50 (DC50) from curve fit) [nM] | Dmax ([1]; read-out: Dmax (%) BaF3-LTC, BaF3-LTC cells; maximum percentage of inhibition (degradation)) [%] | DC50 ([2]; read-out: DC50(nM) H1975 # 28 DTC; H1975 # 28 DTC cells; EGFR degradation, IC50 (DC50) from curve fit) [nM] |
| --- | --- | --- | --- | --- | --- | --- | --- |
| CCc1cc(Nc2ncc(Br)c(Nc3ccc4nc(NC5CC5)ccc4c3P(C)(C)=O)n2)c(OC)cc1N1CCC(N2CCN(CCc3cc(F)c([C@H]4CCC(=O)NC4=O)c(F)c3)CC2)CC1 [Example 653, (R)-3-(4-(2-(4-(1-(4-((5-bromo-4-((2-(cyclopropylamino)-5-(dimethylphosphoryl)quinolin-6-yl)amino)pyrimidin-2-yl)amino)-2-ethyl-5-methoxyphenyl)piperidin-4-yl)piperazin-1-yl)ethyl)-2,6-difluorophenyl)piperidine-2,6-dione] | 7.19 | 87.7 | 0.7 | 87.89 | – | – | – |
| CCOc1cc(N2CCC(N3CCN(CCCc4cc(OC)cc5c4oc(=O)n5C4CCC(=O)NC4=O)CC3)CC2)c(CC)cc1Nc1ncc(Br)c(Nc2ccc3nc(CC)ccc3c2P(C)(C)=O)n1 (stereo not drawn) [Example 597, 3-(7-(3-(4-(1-(4-((5-bromo-4-((5-(dimethylphosphoryl)-2-ethylquinolin-6-yl)amino)pyrimidin-2-yl)amino)-5-ethoxy-2-ethylphenyl)piperidin-4-yl)piperazin-1-yl)propyl)-5-methoxy-2-oxobenzo[d]oxazol-3(2H)-yl)piperidine-2,6-dione] | 28.2 | 90.1 | 1.59 | 75.93 | – | – | – |
| CCOc1cc(N2CCC(N3CCN(CC4CN(c5cccc6c5oc(=O)n6C5CCC(=O)NC5=O)C4)CC3)CC2)c(CC)cc1Nc1ncc(Br)c(Nc2cc(F)c3nc(CC)ccc3c2P(C)(C)=O)n1 (stereo not drawn) [Example 562, 3-(7-(3-((4-(1-(4-((5-bromo-4-((5-(dimethylphosphoryl)-2-ethyl-8-fluoroquinolin-6-yl)amino)pyrimidin-2-yl)amino)-5-ethoxy-2-ethylphenyl)piperidin-4-yl)piperazin-1-yl)methyl)azetidin-1-yl)-2-oxobenzo[d]oxazol-3(2H)-yl)piperidine-2,6-dione] | 7.47 | 90.2 | 1.54 | 77.73 | – | – | – |
| CCOc1cc(N2CCC(N3CCN(C(=O)[C@@H]4CCN(c5cccc6c5oc(=O)n6C5CCC(=O)NC5=O)C4)CC3)CC2)c(CC)cc1Nc1ncc(Br)c(Nc2ccc3nc(CC)ccc3c2P(C)(C)=O)n1 (stereo partly drawn) [Example 445, 3-(7-((R)-3-(4-(1-(4-((5-bromo-4-((5-(dimethylphosphoryl)-2-ethylquinolin-6-yl)amino)pyrimidin-2-yl)amino)-5-ethoxy-2-ethylphenyl)piperidin-4-yl)piperazine-1-carbonyl)pyrrolidin-1-yl)-2-oxobenzo[d]oxazol-3(2H)-yl)piperidine-2,6-dione] | – | – | – | 79.2 | 5.24 | 87.7 | 0.877 |
| CCOc1cc(N2CCC(N3CCN(CCCc4cc(OC)cc5c4oc(=O)n5C4CCC(=O)NC4=O)CC3)CC2)c(CC)cc1Nc1ncc(Br)c(Nc2ccc3c(=O)n(CC)ncc3c2P(C)(C)=O)n1 (stereo not drawn) [Example 598, 3-(7-(3-(4-(1-(4-((5-bromo-4-((5-(dimethylphosphoryl)-2-ethyl-1-oxo-1,2-dihydrophthalazin-6-yl)amino)pyrimidin-2-yl)amino)-5-ethoxy-2-ethylphenyl)piperidin-4-yl)piperazin-1-yl)propyl)-5-methoxy-2-oxobenzo[d]oxazol-3(2H)-yl)piperidine-2,6-dione] | 18.8 | 88.4 | 1.64 | 81.26 | – | – | – |
| CCOc1cc(N2CCC(N3CCN(CCc4cc5oc(=O)n(C6CCC(=O)NC6=O)c5cc4F)CC3)CC2)c(CC)cc1Nc1ncc(Br)c(Nc2ccc3c(=O)n(CC)ncc3c2P(C)(C)=O)n1 (stereo not drawn) [Example 628, 3-(6-(2-(4-(1-(4-((5-bromo-4-((5-(dimethylphosphoryl)-2-ethyl-1-oxo-1,2-dihydrophthalazin-6-yl)amino)pyrimidin-2-yl)amino)-5-ethoxy-2-ethylphenyl)piperidin-4-yl)piperazin-1-yl)ethyl)-5-fluoro-2-oxobenzo[d]oxazol-3(2H)-yl)piperidine-2,6-dione] | 3.24 | 92.3 | 0.715 | 76.12 | – | – | – |
| CCOc1cc(N2CCC(N3CCN(CCc4c(C)ccc5c4n(C)c(=O)n5C4CCC(=O)NC4=O)CC3)CC2)c(CC)cc1Nc1ncc(Br)c(Nc2ccc3nc(CC)ccc3c2P(C)(C)=O)n1 (stereo not drawn) [Example 461, 3-(4-(2-(4-(1-(4-((5-bromo-4-((5-(dimethylphosphoryl)-2-ethylquinolin-6-yl)amino)pyrimidin-2-yl)amino)-5-ethoxy-2-ethylphenyl)piperidin-4-yl)piperazin-1-yl)ethyl)-3,5-dimethyl-2-oxo-2,3-dihydro-1H-benzo[d]imidazol-1-yl)piperidine-2,6-dione] | 132 | 90 | 38.8 | 75.83 | – | – | – |
| CCOc1cc(N2CCC(N3CCN(CCCc4cc(F)c([C@H]5CCC(=O)NC5=O)c(F)c4)CC3)CC2)c(CC)cc1Nc1ncc(Br)c(Nc2cc(F)c3nc(CC)ccc3c2P(C)(C)=O)n1 [Example 567, (R)-3-(4-(3-(4-(1-(4-((5-bromo-4-((5-(dimethylphosphoryl)-2-ethyl-8-fluoroquinolin-6-yl)amino)pyrimidin-2-yl)amino)-5-ethoxy-2-ethylphenyl)piperidin-4-yl)piperazin-1-yl)propyl)-2,6-difluorophenyl)piperidine-2,6-dione] | 13.2 | 92 | 3.01 | 56.23 | – | – | – |
| CCc1cc(Nc2ncc(Br)c(Nc3cc(F)c4nc(C)ccc4c3P(C)(C)=O)n2)c(OC)cc1N1CCC(N2CCN(CCc3cc(F)c([C@H]4CCC(=O)NC4=O)c(F)c3)CC2)CC1 [Example 510, (R)-3-(4-(2-(4-(1-(4-((5-bromo-4-((5-(dimethylphosphoryl)-8-fluoro-2-methylquinolin-6-yl)amino)pyrimidin-2-yl)amino)-2-ethyl-5-methoxyphenyl)piperidin-4-yl)piperazin-1-yl)ethyl)-2,6-difluorophenyl)piperidine-2,6-dione] | 3.89 | 93.1 | 0.763 | 67.2 | – | – | – |

Now from value to compound, other results behind:

| DC50 [1, 3] [nM] | Dmax [1, 4] [%] | DC50 [2, 5] [nM] | SMILES | Dmax (%) H1975 # 28 DTC [2, 6] [%] | DC50 ([1]; read-out: DC50(nM) BaF3-LTC; BaF3-LTC cells; EGFR degradation, IC50 (DC50) from curve fit) [nM] | Dmax ([1]; read-out: Dmax (%) BaF3-LTC, BaF3-LTC cells; maximum percentage of inhibition (degradation)) [%] | DC50 ([2]; read-out: DC50(nM) H1975 # 28 DTC; H1975 # 28 DTC cells; EGFR degradation, IC50 (DC50) from curve fit) [nM] |
| --- | --- | --- | --- | --- | --- | --- | --- |
| 19.6 | 86.9 | 0.945 | CCOc1cc(N2CCC(N3CCN(CCc4cc(F)cc5c4oc(=O)n5C4CCC(=O)NC4=O)CC3)CC2)c(CC)cc1Nc1ncc(Br)c(Nc2ccc3nc(CC)ccc3c2P(C)(C)=O)n1 (stereo not drawn) [Example 472, 3-(7-(2-(4-(1-(4-((5-bromo-4-((5-(dimethylphosphoryl)-2-ethylquinolin-6-yl)amino)pyrimidin-2-yl)amino)-5-ethoxy-2-ethylphenyl)piperidin-4-yl)piperazin-1-yl)ethyl)-5-fluoro-2-oxobenzo[d]oxazol-3(2H)-yl)piperidine-2,6-dione] | 80.01 | – | – | – |
| 9.14 | – | 0.803 | CCOc1cc(N2CCC(N3CCN(CCc4cc(F)c([C@H]5CCC(=O)NC5=O)c(F)c4)CC3)CC2)c(CC)cc1Nc1ncc(Br)c(Nc2ccc3nc(C)c(F)cc3c2P(C)(C)=O)n1 [Example 728, (R)-3-(4-(2-(4-(1-(4-((5-bromo-4-((5-(dimethylphosphoryl)-3-fluoro-2-methylquinolin-6-yl)amino)pyrimidin-2-yl)amino)-5-ethoxy-2-ethylphenyl)piperidin-4-yl)piperazin-1-yl)ethyl)-2,6-difluorophenyl)piperidine-2,6-dione] | 87.57 | – | – | – |
| 55.9 | 79.7 | 2.42 | CCOc1cc(N2CCC(N3CCN(CCc4cc(F)c(F)c5c4n(CC)c(=O)n5C4CCC(=O)NC4=O)CC3)CC2)c(CC)cc1Nc1ncc(Br)c(Nc2ccc3c(=O)n(CC)ncc3c2P(C)(C)=O)n1 (stereo not drawn) [Example 743, 3-(4-(2-(4-(1-(4-((5-bromo-4-((5-(dimethylphosphoryl)-2-ethyl-1-oxo-1,2-dihydrophthalazin-6-yl)amino)pyrimidin-2-yl)amino)-5-ethoxy-2-ethylphenyl)piperidin-4-yl)piperazin-1-yl)ethyl)-3-ethyl-6,7-difluoro-2-oxo-2,3-dihydro-1H-benzo[d]imidazol-1-yl)piperidine-2,6-dione] | 75.96 | – | – | – |
| 22.6 | 93.3 | 1.75 | CCOc1cc(N2CCC(N3CCN(CCc4cc(F)c([C@H]5CCC(=O)NC5=O)c(F)c4)CC3)CC2)c(CC)cc1Nc1ncc(Br)c(Nc2ccc3c(=O)n(CC)ncc3c2P(C)(C)=O)n1 [Example 679, (R)-3-(4-(2-(4-(1-(4-((5-bromo-4-((5-(dimethylphosphoryl)-2-ethyl-1-oxo-1,2-dihydrophthalazin-6-yl)amino)pyrimidin-2-yl)amino)-5-ethoxy-2-ethylphenyl)piperidin-4-yl)piperazin-1-yl)ethyl)-2,6-difluorophenyl)piperidine-2,6-dione] | 83.46 | – | – | – |
